Data as given in article PMC12474757, “Paving the way for future PSMA inhibitors: insights from comparative preclinical evaluations of structure modifications” (EJNMMI Radiopharmacy and Chemistry, 2025).
pIC50: −log10 of the molar value.

What was measured:
[1] = target: T1, PSMA (LNCaP cells) (Homo sapiens, UniProt Q04609); experiment: Competition assay on LNCaP cells against [68Ga]Ga-PSMA-617; format: binding; details: for pIC50: competition with 5 nM [68Ga]Ga-PSMA-617, 60 min, 37 °C
T1 construct: host or cells: LNCaP
T1 sequence (Q04609 whole entry): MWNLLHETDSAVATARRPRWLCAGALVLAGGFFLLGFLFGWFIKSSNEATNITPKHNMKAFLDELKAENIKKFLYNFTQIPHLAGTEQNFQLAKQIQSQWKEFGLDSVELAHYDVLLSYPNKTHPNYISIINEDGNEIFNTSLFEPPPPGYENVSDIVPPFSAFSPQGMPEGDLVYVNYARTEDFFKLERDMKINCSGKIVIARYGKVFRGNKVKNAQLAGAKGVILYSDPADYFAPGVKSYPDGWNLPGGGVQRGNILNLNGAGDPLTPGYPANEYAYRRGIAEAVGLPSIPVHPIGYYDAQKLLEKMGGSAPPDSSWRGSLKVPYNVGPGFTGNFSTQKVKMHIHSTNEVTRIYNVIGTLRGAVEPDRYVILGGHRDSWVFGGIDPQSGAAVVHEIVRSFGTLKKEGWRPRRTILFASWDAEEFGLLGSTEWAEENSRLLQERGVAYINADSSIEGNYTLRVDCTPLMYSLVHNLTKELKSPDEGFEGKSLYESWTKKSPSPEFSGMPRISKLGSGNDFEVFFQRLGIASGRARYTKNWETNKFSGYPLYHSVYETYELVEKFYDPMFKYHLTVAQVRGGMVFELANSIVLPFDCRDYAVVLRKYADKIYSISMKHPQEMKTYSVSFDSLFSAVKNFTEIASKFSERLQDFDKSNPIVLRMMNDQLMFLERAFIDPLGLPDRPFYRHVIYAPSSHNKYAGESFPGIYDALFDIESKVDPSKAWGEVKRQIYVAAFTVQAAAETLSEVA
Experimental: The competition assay, LNCaP cells were seeded into poly-L-lysine coated 24-well plates in amount of 0.5 × 10^6 cells/well 24 h prior to the competition assay. The tested ligands (^68Ga-P15, ^68Ga-P16 and ^68Ga-P19) were added to the wells in concentrations 0, 1, 5, 10, 25, 50, 100, 500, 1000 and 5000 nM in triplicates. Afterwards, ^68Ga-labelled PSMA-617 was added to each well so its final concentration was 5 nM. All the ligands in this assay were dissolved in the buffer containing 25 mM Tris-HCl, 5.4 mM KCl, 1.8 mM CaCl2, 0.8 mM MgSO4, 5 mM glucose, and 140 mM NaCl in H2O (pH adjusted to 7.4). ^68Ga-PSMA-617 was incubated on cells for 60 min at 37 °C followed by its removal and washing the cells with PBS. Finally, the cells were disintegrated using 0.1 M NaOH and transferred into the scintillation vials for the gamma counting. The IC50 values were calculated by fitting the data using a nonlinear regression algorithm (GraphPad PRISM 7.0) and the data were assessed by t-test.

[2] = Stability in human plasma/serum (radiochemical purity by HPLC); format: in vitro ADME; details: for Stability in human serum (%): radiochemical purity, 37 °C, n = 1
Experimental: Quality control, i.e. radiochemical purity, of the ^68Ga-labelled PSMA inhibitors was evaluated by analytical high performance liquid chromatography (HPLC; Dionex UltiMate 3000, Thermo Scientific, Waltham, Massachusetts, USA) using the following equipment: ACE 3 C18 column; 150 × 3 mm, 3 μm (Advanced Chromatography Technologies Ltd, Aberdeen, UK), with gradient elution A: H2O/acetonitrile (ACN); B:0.1% trifluoroacetic acid (TFA)/H2O: 0–3 min, 0% ACN; 3–10 min, 0 − 50% ACN; 10–13 min, 50 − 80% ACN; 13–15 min, 80–0% ACN, for 15 min at a flow rate of 1 mL/min. Radiometric detection was performed using a GABI Star radiodetector (Raytest GmbH, Straubenhardt, Germany) and for chromatogram quantification Chromatography Data System (CDS) - Chromeleon software (Thermo Scientific, USA) was used. The actual sample injection was performed using a Hamilton microinjector (Hamilton, USA).
Plasma stability was determined as follows. To 100 µL of ⁶⁸Ga-P15 with radioactivity of 45 kBq/100 µL, 400 µL of human plasma was added and mixed. The mixture was incubated at 37 °C and 100 µL samples were taken at 30, 60 and 120 min. These samples were then mixed with 200 µL of acetonitrile and placed on a shaker for 1 min. The sample was then centrifuged at 15,000 rpm for 3 min. After centrifugation, the supernatant was collected for radiochemical purity analysis by HPLC. The same procedure was applied when determining plasma stability of ⁶⁸Ga-P16, ⁶⁸Ga-P19, and ⁶⁸Ga-PSMA-617.

| IC50 fold higher than that of [68Ga]Ga-P16 ([1]; competition assay) [fold] | pIC50 [1] | Stability in human serum (%) ([2]; incubation time 30 min) | Stability in human serum (%) ([2]; incubation time 60 min) | Stability in human serum (%) ([2]; incubation time 120 min) | Radiochemical purity in human blood serum/plasma ([2]; 37 °C, 30, 60 and 120 min) | SMILES |
| --- | --- | --- | --- | --- | --- | --- |
| ~25 | 7.01 | 98.9 | 99.8 | 99.4 |  | O=C([O-])CN1CCN(CC(=O)[O-])CCN(CC(=O)N[C@H]2CC[C@H](NC(=O)[C@@H](Cc3ccc4ccccc4c3)NC(=O)CC[C@H](NC(=O)N[C@@H](CCC(=O)O)C(=O)O)C(=O)O)CC2)CCN(CC(=O)[O-])CC1.[68Ga+3] [[^68Ga]Ga-P15] |
|  | 8.40 | 98.8 | 98.3 | 97.3 | above 97% | O=C([O-])CN1CCN(CC(=O)[O-])CCN(CC(=O)N[C@H]2CC[C@H](NC(=O)[C@H](Cc3ccc4ccccc4c3)NC(=O)CC[C@H](NC(=O)N[C@@H](CCC(=O)O)C(=O)O)C(=O)O)CC2)CCN(CC(=O)[O-])CC1.[68Ga+3] [[^68Ga]Ga-P16] |
|  | 7.02 | 99.3 | 99.8 | 99.9 |  | O=C([O-])CN1CCN(CC(=O)[O-])CCN(CC(=O)NCc2ccc(C(=O)N[C@H](C(=O)NCCCC[C@H](NC(=O)N[C@@H](CCC(=O)O)C(=O)O)C(=O)O)C(c3ccccc3)c3ccccc3)cc2)CCN(CC(=O)[O-])CC1.[68Ga+3] [[^68Ga]Ga-P19] |
